According to patent publication US10479795B2 (Incyte Corporation, priority 2016, dated 2019):
Where a name gives a salt, the structure may show the parent alone. Read-outs that look alike come from different tables or passages of the source.

What was measured:
[1] = test system: Phosphorylated Ribosomal Protein S6 (RPS6); test: THP-1 RPS6 ELISA Assay; format: cell-based, Human; details: THP-1 cells, read-out: PI3Kγ_THP1_RPS6_ELISA IC50
Procedure, shortened: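 IC50 values come from a curve of percent inhibition against log compound concentration, using phospho-RPS6 ELISA (450 nm) on THP-1 lysates. Cells were serum-starved overnight, exposed to compound for 2 h at 37 °C, then challenged 15 min with 10 nM MCP-1.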

[2] = target: PI3Kγ (p110γ) Recombinant Human Protein (Homo sapiens (Human), UniProt P48736); test: PI3K-γ Scintillation Proximity Assay; format: biochemical; details: read-out: PI3Kγ IC50
Procedure, shortened: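 Radiometric SPA readout: […] bound to WGA beads after overnight shaking, IC50 derived from % activity of DMSO control. Reaction used human p110γ, 2 μM ATP, 20 μM PIP2, pH 6.7 MOPS buffer with MgCl2, DTT, CHAPS, 2% DMSO, room temperature.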

[3] = target: PI3Kδ (p110δ/p85α) Recombinant Human Protein (Homo sapiens (Human), UniProt O00329); test: PI3Kδ Scintillation Proximity Assay; format: biochemical
Procedure, shortened: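 IC50 was fitted to percent solvent-control activity from SPA scintillation counts after WGA bead capture of 33P-labelled lipid product. Reaction: 120 min, room temperature, 3.4 nM p110δ/p85α, 20 μM PIP2, 2 μM ATP with tracer, MOPS pH 6.7 buffer containing MgCl2, DTT, CHAPS, 2% DMSO.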

Chain of PI3Kγ (p110γ) Recombinant Human Protein (P48736 whole entry): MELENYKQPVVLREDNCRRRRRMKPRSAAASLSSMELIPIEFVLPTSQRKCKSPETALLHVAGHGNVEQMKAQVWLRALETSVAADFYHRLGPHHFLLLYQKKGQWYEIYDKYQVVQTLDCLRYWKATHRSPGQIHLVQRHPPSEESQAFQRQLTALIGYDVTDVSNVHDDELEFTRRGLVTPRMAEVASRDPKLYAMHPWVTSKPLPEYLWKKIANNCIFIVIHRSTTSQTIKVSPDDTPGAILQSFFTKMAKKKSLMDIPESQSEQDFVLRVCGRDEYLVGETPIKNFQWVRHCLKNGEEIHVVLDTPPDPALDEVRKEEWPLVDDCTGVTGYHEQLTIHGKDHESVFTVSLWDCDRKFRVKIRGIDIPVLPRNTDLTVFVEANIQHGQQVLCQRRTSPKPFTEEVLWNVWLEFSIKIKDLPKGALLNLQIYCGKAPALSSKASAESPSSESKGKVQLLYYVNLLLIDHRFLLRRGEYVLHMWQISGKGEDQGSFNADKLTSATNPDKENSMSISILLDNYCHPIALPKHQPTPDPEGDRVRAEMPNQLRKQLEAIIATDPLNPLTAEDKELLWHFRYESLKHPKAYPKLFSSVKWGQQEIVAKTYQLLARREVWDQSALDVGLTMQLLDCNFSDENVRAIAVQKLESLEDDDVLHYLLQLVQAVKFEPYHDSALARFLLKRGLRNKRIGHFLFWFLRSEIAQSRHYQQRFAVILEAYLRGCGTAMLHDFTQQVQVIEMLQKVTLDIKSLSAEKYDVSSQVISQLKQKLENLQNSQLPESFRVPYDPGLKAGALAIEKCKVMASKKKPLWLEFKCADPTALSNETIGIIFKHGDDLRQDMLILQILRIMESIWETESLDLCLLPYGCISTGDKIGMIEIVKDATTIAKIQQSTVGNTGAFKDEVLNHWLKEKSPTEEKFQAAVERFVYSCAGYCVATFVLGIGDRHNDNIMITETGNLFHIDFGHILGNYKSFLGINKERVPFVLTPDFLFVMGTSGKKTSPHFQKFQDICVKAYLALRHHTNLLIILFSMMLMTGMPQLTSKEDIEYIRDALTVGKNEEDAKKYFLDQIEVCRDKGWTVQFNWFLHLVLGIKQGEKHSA
Chain of PI3Kδ (p110δ/p85α) Recombinant Human Protein (O00329 whole entry): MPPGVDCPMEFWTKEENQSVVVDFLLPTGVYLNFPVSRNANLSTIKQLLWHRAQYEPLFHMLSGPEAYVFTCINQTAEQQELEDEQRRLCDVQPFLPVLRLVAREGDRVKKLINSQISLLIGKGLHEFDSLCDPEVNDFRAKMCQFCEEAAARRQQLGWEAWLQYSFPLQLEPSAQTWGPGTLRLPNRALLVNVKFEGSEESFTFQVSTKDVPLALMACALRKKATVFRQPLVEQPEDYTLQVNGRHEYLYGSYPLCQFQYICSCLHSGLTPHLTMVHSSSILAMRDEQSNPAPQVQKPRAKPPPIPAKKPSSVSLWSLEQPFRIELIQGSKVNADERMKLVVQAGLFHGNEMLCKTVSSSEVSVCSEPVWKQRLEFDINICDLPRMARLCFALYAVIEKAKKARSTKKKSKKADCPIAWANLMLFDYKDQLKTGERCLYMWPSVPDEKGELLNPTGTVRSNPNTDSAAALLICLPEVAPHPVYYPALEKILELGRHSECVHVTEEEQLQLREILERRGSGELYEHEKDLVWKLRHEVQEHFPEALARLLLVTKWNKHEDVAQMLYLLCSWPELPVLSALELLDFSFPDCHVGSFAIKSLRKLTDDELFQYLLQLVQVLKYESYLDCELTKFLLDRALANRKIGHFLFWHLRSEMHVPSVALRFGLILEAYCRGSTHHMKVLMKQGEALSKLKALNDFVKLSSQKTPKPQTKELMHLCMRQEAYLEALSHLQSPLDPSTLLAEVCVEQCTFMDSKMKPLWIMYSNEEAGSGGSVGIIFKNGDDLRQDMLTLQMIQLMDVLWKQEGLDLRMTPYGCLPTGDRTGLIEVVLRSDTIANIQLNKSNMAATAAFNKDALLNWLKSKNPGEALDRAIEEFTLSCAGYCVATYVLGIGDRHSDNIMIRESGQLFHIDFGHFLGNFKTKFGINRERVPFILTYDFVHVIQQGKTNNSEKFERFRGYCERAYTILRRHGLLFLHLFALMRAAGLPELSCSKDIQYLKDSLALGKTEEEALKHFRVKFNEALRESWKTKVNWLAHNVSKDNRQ
Chain of PI3Kδ (p110δ/p85α) Recombinant Human Protein (P27986 whole entry partner): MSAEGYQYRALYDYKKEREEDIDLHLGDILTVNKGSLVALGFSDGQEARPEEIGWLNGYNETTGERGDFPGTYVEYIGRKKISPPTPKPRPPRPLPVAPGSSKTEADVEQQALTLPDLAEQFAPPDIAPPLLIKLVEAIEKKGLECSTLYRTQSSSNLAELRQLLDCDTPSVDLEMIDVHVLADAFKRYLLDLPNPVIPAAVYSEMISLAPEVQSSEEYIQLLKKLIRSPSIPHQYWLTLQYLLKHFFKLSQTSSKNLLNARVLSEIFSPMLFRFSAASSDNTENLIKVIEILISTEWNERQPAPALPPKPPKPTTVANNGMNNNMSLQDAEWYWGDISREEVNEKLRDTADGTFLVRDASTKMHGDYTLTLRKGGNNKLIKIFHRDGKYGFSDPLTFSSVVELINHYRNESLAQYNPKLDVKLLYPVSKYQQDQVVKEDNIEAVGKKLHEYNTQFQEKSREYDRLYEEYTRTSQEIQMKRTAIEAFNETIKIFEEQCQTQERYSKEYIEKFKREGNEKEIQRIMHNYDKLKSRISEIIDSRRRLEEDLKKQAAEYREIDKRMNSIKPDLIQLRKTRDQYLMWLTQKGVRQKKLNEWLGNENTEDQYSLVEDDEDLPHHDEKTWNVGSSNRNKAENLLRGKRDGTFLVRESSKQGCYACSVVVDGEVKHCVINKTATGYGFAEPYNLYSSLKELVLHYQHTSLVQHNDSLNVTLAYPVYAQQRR

SMILES: Cc1ccc(S(=O)(=O)N2CC3NCC2C3O)cc1-c1cnc2c(N)nc(C(F)(F)F)nn12 (stereo not drawn) [Example 355, 2-((3-(4-amino-2-(trifluoromethyl)imidazo[2,1-f][1,2,4]triazin-7-yl)-4-methylphenyl)sulfonyl)-2,5-diazabicyclo[2.2.1]heptan-7-ol]
- IC50 ([1]; Homo sapiens): 100 to 500 nM
- IC50 [2]: < 100 nM
- IC50 [3]: 100 to 500 nM

SMILES: Cc1ccc(S(=O)(=O)N[C@H]2CC[C@H](CO)OC2)cc1-c1cnc2c(N)nc(C(F)(F)F)nn12 [Example 356, 3-(4-amino-2-(trifluoromethyl)imidazo[2,1-f][1,2,4]triazin-7-yl)-N-((3S,6R)-6-(hydroxymethyl)tetrahydro-2H-pyran-3-yl)-4-methylbenzenesulfonamide]
- IC50 ([1]; Homo sapiens): < 100 nM
- IC50 [2]: < 100 nM
- IC50 [3]: 100 to 500 nM

SMILES: C[C@]1(O)CC[C@H](NS(=O)(=O)c2cc(-c3cnc4c(N)nccn34)ccc2F)CC1 [Example 359, 5-(8-aminoimidazo[1,2-a]pyrazin-3-yl)-2-fluoro-N-((1r,4r)-4-hydroxy-4-methylcyclohexyl)benzenesulfonamide]
- IC50 [1]: > 1000 nM
- IC50 [2]: < 100 nM
- IC50 [3]: 100 to 500 nM

SMILES: Nc1nccn2c(-c3ccc(F)c(S(=O)(=O)NCC4(CO)CCOCC4)c3)cnc12 [Example 360, 5-(8-aminoimidazo[1,2-a]pyrazin-3-yl)-2-fluoro-N-((4-(hydroxymethyl)tetrahydro-2H-pyran-4-yl)methyl)benzenesulfonamide]
- IC50 ([1]; Homo sapiens): > 1000 nM
- IC50 [2]: 100 to 500 nM
- IC50 [3]: 100 to 500 nM

SMILES: O=C(O)C(F)(F)F.[2H]C([2H])([2H])c1ccc(S(=O)(=O)NC23CCC(C#N)(CC2)C3)cc1-c1cnc2c(N)ncnn12 [Example 362, 3-(4-Aminoimidazo[2,1-f][1,2,4]triazin-7-yl)-N-(4-cyanobicyclo[2.2.1]heptan-1-yl)-4-(methyl-d3)benzenesulfonamide trifluoroacetate salt]
- IC50 ([1]; Homo sapiens): < 100 nM
- IC50 [2]: < 100 nM
- IC50 [3]: 100 to 500 nM

SMILES: Cc1cc(C)c(S(=O)(=O)NC23CCC(CO)(C2)C3)cc1-c1cnc2c(N)ncnn12 [Example 363, 5-(4-Aminoimidazo[1,2-f][1,2,4]triazin-7-yl)-N-(4-(hydroxymethyl)bicyclo[2.1.1]hexan-1-yl)-2,4-dimethylbenzenesulfonamide]
- IC50 [1]: 100 to 500 nM
- IC50 [2]: < 100 nM
- IC50 [3]: 500 to 2000 nM

SMILES: N#CC12CCC(NS(=O)(=O)c3cccc(-c4cnc5c(N)ncnn45)c3)(C1)C2 [Example 364, 3-(4-Aminoimidazo[1,2-f][1,2,4]triazin-7-yl)-N-(4-cyanobicyclo[2.1.1]hexan-1-yl)benzenesulfonamide trifluoroacetate salt]
- IC50 [1]: < 100 nM
- IC50 [2]: < 100 nM
- IC50 [3]: 100 to 500 nM

SMILES: N#CC12CCC(NS(=O)(=O)c3cc(-c4cnc5c(N)ncnn45)ccc3F)(C1)C2 [Example 365, 5-(4-Aminoimidazo[1,2-f][1,2,4]triazin-7-yl)-N-(4-cyanobicyclo[2.1.1]hexan-1-yl)-2-fluorobenzenesulfonamide trifluoroacetate salt]
- IC50 [1]: 100 to 500 nM
- IC50 [2]: < 100 nM
- IC50 [3]: 100 to 500 nM

SMILES: Nc1ncnn2c(-c3ccc(Cl)c(S(=O)(=O)NC45CCC(CO)(C4)C5)c3)cnc12 [Example 367, 5-(4-Aminoimidazo[1,2-f][1,2,4]triazin-7-yl)-2-chloro-N-(4-(hydroxymethyl)bicyclo[2.1.1]hexan-1-yl)benzenesulfonamide trifluoroacetate salt]
- IC50 [1]: > 1000 nM
- IC50 [2]: < 100 nM
- IC50 [3]: 100 to 500 nM

SMILES: [2H]C([2H])([2H])c1ccc(S(=O)(=O)NC23CC(CC#N)(C2)C3)cc1-c1cnc2c(N)ncnn12 [Example 371, trifluoroacetate salt]
- IC50 ([1]; Homo sapiens): 100 to 500 nM
- IC50 [2]: < 100 nM
- IC50 [3]: 100 to 500 nM

SMILES: [2H]C([2H])([2H])c1ccc(S(=O)(=O)NC23CCC(O)(C2)C3)cc1-c1cnc2c(N)ncnn12 [Example 374, 3-(4-Aminoimidazo[2,1-f][1,2,4]triazin-7-yl)-N-(4-hydroxybicyclo[2.1.1]hexan-1-yl)-4-(methyl-d3)benzenesulfonamide]
- IC50 ([1]; Homo sapiens): 500 to 1000 nM
- IC50 [2]: < 100 nM
- IC50 [3]: 500 to 2000 nM

SMILES: Cc1c(F)cc(S(=O)(=O)NC23CCC(CO)(CC2)OC3)cc1-c1cnc2c(N)ncnn12 [Example 375, 3-(4-aminoimidazo[1,2-f][1,2,4]triazin-7-yl)-5-fluoro-N-(1-(hydroxymethyl)-2-oxabicyclo[2.2.2]octan-4-yl)-4-methylbenzenesulfonamide trifluoroacetate salt]
- IC50 [1]: < 100 nM
- IC50 [2]: < 100 nM
- IC50 [3]: 100 to 500 nM

SMILES: C[C@]1(O)CC[C@H](NS(=O)(=O)c2cc(-c3cnc4c(N)ncnn34)ccc2F)CC1 [Example 376, 5-(4-aminoimidazo[2,1-f][1,2,4]triazin-7-yl)-2-fluoro-N-((1r,4r)-4-hydroxy-4-methylcyclohexyl)benzenesulfonamide]
- IC50 [1]: > 1000 nM
- IC50 [2]: < 100 nM
- IC50 [3]: 100 to 500 nM

SMILES: C[C@]1(O)CC[C@H](NS(=O)(=O)c2cc(-c3cnc4c(N)ncnn34)ccc2Cl)CC1 [Example 377, 5-(4-aminoimidazo[2,1-f][1,2,4]triazin-7-yl)-2-chloro-N-((1r,4r)-4-hydroxy-4-methylcyclohexyl)benzenesulfonamide]
- IC50 [1]: < 100 nM
- IC50 [2]: < 100 nM
- IC50 [3]: < 100 nM

SMILES: [2H]C([2H])([2H])c1ccc(S(=O)(=O)NC23CC(CC#N)(C2)C3)cc1-c1cnc2c(N)nc(C)cn12 [Example 378, trifluoroacetate salt]
- IC50 ([1]; Homo sapiens): < 100 nM
- IC50 [2]: < 100 nM
- IC50 [3]: 100 to 500 nM

SMILES: O=C(O)C(F)(F)F.[2H]C([2H])([2H])c1ccc(S(=O)(=O)NC23CCC(C#N)(C2)C3)cc1-c1cnc2c(N)nc(C)cn12 [Example 379, 3-(8-Amino-6-methylimidazo[1,2-a]pyrazin-3-yl)-N-(4-cyanobicyclo[2.1.1]hexan-1-yl)-4-(methyl-d3)benzenesulfonamide trifluoroacetate salt]
- IC50 ([1]; Homo sapiens): < 100 nM
- IC50 [2]: < 100 nM
- IC50 [3]: 100 to 500 nM

SMILES: Cc1cn2c(-c3ccc(F)c(S(=O)(=O)NC45CCC(C#N)(C4)C5)c3)cnc2c(N)n1 [Example 380, 5-(8-Amino-6-methylimidazo[1,2-a]pyrazin-3-yl)-N-(4-cyanobicyclo[2.1.1]hexan-1-yl)-2-fluorobenzenesulfonamide trifluoroacetate salt]
- IC50 ([1]; Homo sapiens): > 1000 nM
- IC50 [2]: < 100 nM
- IC50 [3]: 500 to 2000 nM

SMILES: Cc1cn2c(-c3cccc(S(=O)(=O)NC45CCC(CO)(C4)C5)c3)cnc2c(N)n1 [Example 381, 3-(8-Amino-6-methylimidazo[1,2-a]pyrazin-3-yl)-N-(4-(hydroxymethyl)bicyclo[2.1.1]hexan-1-yl)benzenesulfonamide]
- IC50 ([1]; Homo sapiens): 100 to 500 nM
- IC50 [2]: < 100 nM
- IC50 [3]: 100 to 500 nM

SMILES: O=C(O)C(F)(F)F.[2H]C([2H])([2H])c1ccc(S(=O)(=O)NC23CCC(CO)(C2)C3)cc1-c1cnc2c(N)nc(C)cn12 [Example 383, 3-(8-Amino-6-methylimidazo[1,2-a]pyrazin-3-yl)-N-(4-(hydroxymethyl)bicyclo[2.1.1]hexan-1-yl)-4-(methyl-d3)benzenesulfonamide trifluoroacetate salt]
- IC50 ([1]; Homo sapiens): < 100 nM
- IC50 [2]: < 100 nM
- IC50 [3]: < 100 nM

SMILES: [2H]C([2H])([2H])c1ccc(S(=O)(=O)NC23CCC(O)(C2)C3)cc1-c1cnc2c(N)nc(C)cn12 [Example 384, 3-(8-Amino-6-methylimidazo[1,2-a]pyrazin-3-yl)-N-(4-hydroxybicyclo[2.1.1]hexan-1-yl)-4-(methyl-d3)benzenesulfonamide]
- IC50 ([1]; Homo sapiens): 500 to 1000 nM
- IC50 [2]: < 100 nM
- IC50 [3]: < 100 nM

SMILES: Cc1cn2c(-c3ccc(Cl)c(S(=O)(=O)N[C@H]4CC[C@](C)(O)CC4)c3)cnc2c(N)n1 [Example 385, 5-(8-amino-6-methylimidazo[1,2-a]pyrazin-3-yl)-2-chloro-N-((1r,4r)-4-hydroxy-4-methylcyclohexyl)benzenesulfonamide]
- IC50 [1]: 100 to 500 nM
- IC50 [2]: < 100 nM
- IC50 [3]: < 100 nM

SMILES: O=C(O)C(F)(F)F.[2H]C([2H])([2H])c1ccc(S(=O)(=O)NC23CCC(C#N)(C2)C3)cc1-c1cnc2c(N)nc(C)nn12 [Example 386, 3-(4-Amino-2-methylimidazo[2,1-f][1,2,4]triazin-7-yl)-N-(4-cyanobicyclo[2.1.1]hexan-1-yl)-4-(methyl-d3)benzenesulfonamide trifluoroacetate salt]
- IC50 ([1]; Homo sapiens): < 100 nM
- IC50 [2]: < 100 nM
- IC50 [3]: 100 to 500 nM

SMILES: Cc1nc(N)c2ncc(-c3ccc(F)c(S(=O)(=O)NC45CCC(C#N)(C4)C5)c3)n2n1 [Example 387, 5-(4-Amino-2-methylimidazo[1,2-f][1,2,4]triazin-7-yl)-N-(4-cyanobicyclo[2.1.1]hexan-1-yl)-2-fluorobenzenesulfonamide trifluoroacetate salt]
- IC50 [1]: < 100 nM
- IC50 [2]: < 100 nM
- IC50 [3]: 100 to 500 nM

SMILES: Cc1nc(N)c2ncc(-c3ccc(F)c(S(=O)(=O)NC45CC(C#N)(C4)C5)c3)n2n1 [Example 388, 5-(4-Amino-2-methylimidazo[1,2-f][1,2,4]triazin-7-yl)-N-(3-cyanobicyclo[1.1.1]pentan-1-yl)-2-fluorobenzenesulfonamide trifluoroacetate salt]
- IC50 [1]: > 1000 nM
- IC50 [2]: < 100 nM
- IC50 [3]: 100 to 500 nM
